Laboratory results taken from the supplement of paper PMC10627819.

Legend:
S. pneumoniae D39V [1] = assay: fitness (endpoint OD595 vs no drug) (fraction); higher = more growth
Summary of the method: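 Fitness expresses the optical density reached at the stationary-phase transition as a fraction of the robust mean of no-drug control wells. It is capped at 1. Measurements were OD595 every 30 min for 14 h at 37 °C after inoculation of 384-well plates at OD595 0.01 (30 µl, or 55 µl for S. pneumoniae), minus the first reading.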

B. subtilis 168 = assay: Bliss interaction score (quartile over a dose matrix) (fitness difference); higher = more antagonism (negative = synergy)
Summary of the method: (§1)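 Values were capped at 1 after dividing OD595 at stationary-phase entry by the plate's robust no-drug mean. This ratio is fitness, and single-drug fitness was inferred from the combination data. The Bliss score is observed minus product-expected fitness, given as quartiles over technical, biological and donor/recipient replicates.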

S. aureus DSM 20231 = assay: as above
Summary of the method: as §1

S. aureus Newman = assay: as above
Summary of the method: as §1

S. pneumoniae D39V [2] = assay: as above
Summary of the method: as §1
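Wherever Bliss interaction score (quartile over a dose matrix) is given: first quartile when negative (synergy) and third quartile when positive (antagonism).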

CC[C@H]1OC(=O)[C@H](C)[C@@H](O[C@H]2C[C@@](C)(OC)[C@@H](O)[C@H](C)O2)[C@H](C)[C@@H](O[C@@H]2O[C@H](C)C[C@H](N(C)C)[C@H]2O)[C@](C)(OC)C[C@@H](C)C(=O)[C@H](C)[C@@H](O)[C@]1(C)O [Clarithromycin] + CN[C@@H]1[C@H](O[C@H]2[C@H](O[C@H]3[C@H](O)[C@@H](O)[C@H](N=C(N)N)[C@@H](O)[C@@H]3N=C(N)N)O[C@@H](C)[C@]2(O)C=O)O[C@@H](CO)[C@H](O)[C@H]1O [Streptomycin]
fitness, S. pneumoniae D39V [1], one replicate
Settings	first compound 0.007812 µg/mL	first compound 0.01562 µg/mL	first compound 0.03125 µg/mL	first compound 0.0625 µg/mL	first compound 0.125 µg/mL	first compound 0.25 µg/mL
partner 2 µg/mL	0.857	0.802	0.663	0.68	0.318	0.129
partner 4 µg/mL	0.866	0.799	0.694	–	–	–
partner 8 µg/mL	0.845	0.793	0.651	–	–	–
partner 16 µg/mL	–	–	–	0.478	0.184	0.0864

fitness, S. pneumoniae D39V [1]
Settings	first compound 0.0625 µg/mL	first compound 0.07 µg/mL	first compound 0.125 µg/mL	first compound 0.14 µg/mL	first compound 0.25 µg/mL	first compound 0.28 µg/mL
partner 2 µg/mL	–	0.117	–	0.0741	–	0.0426
partner 4 µg/mL	0.623	0.103	0.3	0.0646	0.142	0.0455
partner 8 µg/mL	0.594	0.154	0.312	0.0691	0.107	0.0723

Settings	Bliss interaction score
B. subtilis 168	0.0553
S. aureus DSM 20231	0.0696
S. aureus Newman	-0.0521
S. pneumoniae D39V [2]	-0.0538

CC[C@H]1OC(=O)[C@H](C)[C@@H](O[C@H]2C[C@@](C)(OC)[C@@H](O)[C@H](C)O2)[C@H](C)[C@@H](O[C@@H]2O[C@H](C)C[C@H](N(C)C)[C@H]2O)[C@](C)(OC)C[C@@H](C)C(=O)[C@H](C)[C@@H](O)[C@]1(C)O [Clarithromycin] + CN[C@H](CC(C)C)C(=O)N[C@H]1C(=O)N[C@@H](CC(N)=O)C(=O)N[C@H]2C(=O)N[C@H]3C(=O)N[C@H](C(=O)N[C@H](C(=O)O)c4cc(O)cc(O)c4-c4cc3ccc4O)[C@H](O)c3ccc(c(Cl)c3)Oc3cc2cc(c3O[C@@H]2O[C@H](CO)[C@@H](O)[C@H](O)[C@H]2O[C@H]2C[C@](C)(N)[C@H](O)[C@H](C)O2)Oc2ccc(cc2Cl)[C@H]1O [Vancomycin]
fitness, S. pneumoniae D39V [1], one replicate
Settings	first compound 0.007812 µg/mL	first compound 0.01562 µg/mL	first compound 0.03125 µg/mL
partner 0.125 µg/mL	0.835	0.803	0.699
partner 0.25 µg/mL	0.333	0.0993	0.126
partner 0.5 µg/mL	0.0664	0.0774	0.0781

fitness, S. pneumoniae D39V [1]
Settings	first compound 0.0625 µg/mL	first compound 0.07 µg/mL	first compound 0.125 µg/mL	first compound 0.14 µg/mL	first compound 0.25 µg/mL	first compound 0.28 µg/mL
partner 0.03125 µg/mL	0.652	–	0.381	–	0.149	–
partner 0.0625 µg/mL	0.577	–	0.321	–	0.116	–
partner 0.125 µg/mL	–	0.101	0.281	0.0727	0.106	0.0814
partner 0.25 µg/mL	–	0.0516	–	0.0525	–	0.0738
partner 0.5 µg/mL	–	0.0749	–	0.0887	–	0.0893

Settings	Bliss interaction score
B. subtilis 168	0.038
S. aureus DSM 20231	0.054
S. aureus Newman	0.0579
S. pneumoniae D39V [2]	-0.0529

CC[C@H]1OC(=O)[C@H](C)[C@@H](O[C@H]2C[C@@](C)(OC)[C@@H](O)[C@H](C)O2)[C@H](C)[C@@H](O[C@@H]2O[C@H](C)C[C@H](N(C)C)[C@H]2O)[C@](C)(OC)C[C@@H](C)C(=O)[C@H](C)[C@@H](O)[C@]1(C)O [Clarithromycin] + CO[C@H]1/C=C/O[C@@]2(C)Oc3c(C)c(O)c4c(O)c(c(/C=N/N5CCN(C)CC5)c(O)c4c3C2=O)NC(=O)/C(C)=C\C=C\[C@H](C)[C@H](O)[C@@H](C)[C@@H](O)[C@@H](C)[C@H](OC(C)=O)[C@@H]1C [Rifampicin]
fitness, S. pneumoniae D39V [1], one replicate
Settings	first compound 0.007812 µg/mL	first compound 0.01562 µg/mL	first compound 0.03125 µg/mL	first compound 0.0625 µg/mL	first compound 0.125 µg/mL	first compound 0.25 µg/mL
partner 0.025 µg/mL	–	–	–	0.395	0.245	0.155
partner 0.05 µg/mL	0.647	0.466	0.293	–	–	–
partner 0.1 µg/mL	0.262	0.213	0.219	–	–	–
partner 0.2 µg/mL	0.122	0.15	0.196	0	0	0

fitness, S. pneumoniae D39V [1]
Settings	first compound 0.0625 µg/mL	first compound 0.07 µg/mL	first compound 0.125 µg/mL	first compound 0.14 µg/mL	first compound 0.25 µg/mL	first compound 0.28 µg/mL
partner 0.025 µg/mL	–	0.161	–	0.109	–	0.121
partner 0.05 µg/mL	0.362	0.17	0.215	0.164	0.108	0.102
partner 0.1 µg/mL	0.177	0.118	0.119	0.0954	0.114	0.138

Settings	Bliss interaction score
B. subtilis 168	0.0788
S. aureus DSM 20231	0.0272
S. aureus Newman	0.0434
S. pneumoniae D39V [2]	0.0654
